# In ChEMBL document CHEMBL1128481, “Synthesis, structure elucidation, and biochemical evaluation of 7 alpha- and 7 beta-arylaliphatic-substituted androst-4-ene-3,17-diones as inhibitors of aromatase” (J Med Chem, 1995):
# Experiments:
# Aromatase [1] = target: T1, Aromatase (Homo sapiens, UniProt P11511); experiment: Inhibition of human placental Cytochrome P450 19A1 at 100 nM
# T1 sequence (P11511 whole entry): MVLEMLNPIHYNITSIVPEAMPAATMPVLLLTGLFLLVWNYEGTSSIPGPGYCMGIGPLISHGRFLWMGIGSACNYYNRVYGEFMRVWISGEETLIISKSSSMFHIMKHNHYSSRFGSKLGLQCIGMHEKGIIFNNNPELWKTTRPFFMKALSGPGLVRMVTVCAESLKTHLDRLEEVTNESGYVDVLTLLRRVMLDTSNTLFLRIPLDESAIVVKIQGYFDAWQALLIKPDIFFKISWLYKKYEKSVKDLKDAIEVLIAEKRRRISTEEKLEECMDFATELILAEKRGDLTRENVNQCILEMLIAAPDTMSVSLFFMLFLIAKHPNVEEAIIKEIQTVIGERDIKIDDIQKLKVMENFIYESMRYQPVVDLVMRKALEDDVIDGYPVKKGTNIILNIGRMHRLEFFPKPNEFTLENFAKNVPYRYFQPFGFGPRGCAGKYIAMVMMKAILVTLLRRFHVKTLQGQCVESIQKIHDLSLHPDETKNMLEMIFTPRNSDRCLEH
# Aromatase [2] = target: T1, Aromatase
# Description: Inhibition of human placental Cytochrome P450 19A1 at 250 nM
# Aromatase [3] = target: T1, Aromatase; remark: listed apart in the source
# Aromatase [4] = target: T1, Aromatase; remark: listed apart in the source
# Description: Apparent binding affinity for human placental Cytochrome P450 19A1
SMILES,inhibition at 0.1 µM (Aromatase [1]),inhibition at 0.25 µM (Aromatase [2]),inhibition at 0.1 µM (Aromatase [3]),Ki (Aromatase [4])
C[C@]12CCC(=O)C=C1C[C@@H](Sc1ccc(N)cc1)[C@@H]1[C@@H]2CC[C@]2(C)C(=O)CC[C@@H]12,70.6%,83.9%,,
C[C@]12CCC(=O)C=C1C[C@H](CCc1ccccc1)[C@@H]1[C@@H]2CC[C@]2(C)C(=O)CC[C@@H]12,,67.8%,55.7%,0.0402 µM
C[C@]12CCC(=O)C=C1C[C@H](Cc1ccccc1)[C@@H]1[C@@H]2CC[C@]2(C)C(=O)CC[C@@H]12,,68.9%,46.7%,0.0445 µM
C[C@]12CC[C@H]3[C@@H]([C@H](Cc4ccccc4)CC4=CC(=O)CC[C@@]43C)[C@@H]1CC[C@@H]2O,,72.5%,59.4%,0.0395 µM
C[C@]12CC[C@H]3[C@@H]([C@H](CCc4ccccc4)CC4=CC(=O)CC[C@@]43C)[C@@H]1CC[C@@H]2O,,56.7%,45.8%,0.036 µM
CC12CCC3C(C1CCC2=O)[C@H](Cc1ccccc1)CC1=CC(=O)CCC13C (stereo not given in full),,81.5%,64.3%,0.0189 µM
CC12CCC3C(C1CCC2=O)[C@H](CCc1ccccc1)CC1=CC(=O)CCC13C (stereo not given in full),,81.6%,66.1%,0.0131 µM
